Entries after “also recorded” stand apart in the source; their conditions may differ.
Assays:
[1] = test system: D283 (D283Med, high-MYC medulloblastoma cell line); assay: MTS cell growth assay; format: cell-based, human; settings: for growth as measured by MTS assay: D283 / D283Med, increasing concentrations
Procedure: (§1) FIG. 4: Growth as measured by MTS assay after 3 days of acivicin treatment at increasing doses. The low-MYC cell line, UW228 (FIG. 4A), is not sensitive to treatment with acivicin. The high-MYC cell lines, D283 (FIG. 4B) and D425 (FIG. 4C) are sensitive to acivicin, showing an inhibition of growth of approximately 50% or more at a concentration of 10 uM acivicin.
(§2) FIG. 11: Medulloblastoma cell lines expressing c-MYC and glutaminase (GLS) are sensitive to inhibitors of glutamine metabolism. c-MYC levels positively correlate with GLS levels in D425Med and D283Med (A) as indicated by western blot. The growth of D283Med (B) and D425Med (C) is inhibited when treated with DON or Acivicin as measured by MTS assay. […] Cells were fixed and stained with an anti-cleaved caspase-3 antibody followed by a Cy-3 conjugated secondary and a DAPI counterstain. Multiple images were taken of each treatment and Cy3 positive cells were counted using Adobe Photoshop. Representative images are in D. Acivicin and DON treatment cause an increase the in sub-G1 (apoptotic) population of D425Med (E) and D283Med (F) as measured by flow cytometry.
(§3) For relative cell growth assays, cells were seeded in 96-well plates in triplicate at densities of 5000 cells per well. Cell proliferation was monitored at the indicated number of days using the colorimetric CellTiter 96 MTS assay (Promega, Madison, Wis.).
(§4) We tested this hypothesis using UW228 (low MYC) and D283 and D425 (high MYC) medulloblastoma cell lines.

[2] = test system: D425 (D425Med, high-MYC medulloblastoma cell line); assay: MTS cell growth assay; format: cell-based, human; settings: for growth as measured by MTS assay: D425 / D425Med, increasing concentrations
Procedure: as §1, §2, §3, §4

[3] = test system: hindbrain derived neurospheres transduced with oncogenes not including MYC; assay: BrdU proliferation assay, PNET models; format: cell-based, human; settings: 10 uM DON, no MYC
Procedure: (§5) FIG. 10 A: Acivicin suppresses the growth of MYC containing human neural stem cell PNET models. Graph comparing percent BrdU positivity in mock treated (blue) and with 10 uM acivicin (red) treated cells. […] FIG. 10 B: Acivicin suppresses the growth of MYC containing human neural stem cell PNET models. The graph compares percent BrdU positivity in mock treated (blue) and with 10 uM DON (red) treated cells.
(§6) For measurement of proliferation, cells were treated with the indicated drug for 18 hours and were then pulsed with bromo-deoxyuridine for an additional 6 hours. Cells were triturated to single cells and then cytospun onto microscope slides. After washing cells once with PBS, they were fixed with 4% paraformaldehyde for 15 minutes, permeabilized with 0.1% Triton/PBS, denatured with 0.1N HCl for 15 minutes, then blocked with 5% normal goat serum/PBST or 5% BSA/PBST, and incubated with anti-BrdU (Sigma) antibody at 37 degrees for one hour. After washing three times with PBST, cells were incubated for 45 minutes in the dark with the appropriate Cy-2 or Cy-3 conjugated secondary antibody (Jackson Immunoresearch). […] Multiple high power fields were photographed at random, and the percent BrdU positivity was calculated by counting first BrdU positive cells and then DAPI positive cells and dividing the former by the latter. […]

[4] = administered orally at therapeutically effective levels; cited from earlier work
[5] = test system: MYC transduced hindbrain derived human neural stem cell PNET models; assay: BrdU proliferation assay, PNET models; format: cell-based; settings: FIG. 10B
Procedure: as §5, §6

[6] = test system: KNS42 (low-MYC glioma cell line); assay: MTS cell growth assay; format: cell-based; settings: KNS42, 3 days, same concentrations as SF188 and UW479
Procedure: FIG. 9: MTS assay showing sensitivity of high MYC SF188 and […] glioma cell lines and insensitivity of low-MYC KNS42 to glutamine metabolic inhibitors DON and acivicin. Cell growth was measured over 3 days at increasing concentrations of drug.
as §3

[7] = test system: UW228 (low-MYC medulloblastoma cell line); assay: MTS cell growth assay; format: cell-based, human; settings: UW228, 3 days of treatment at increasing concentrations
Procedure: as §1, §3, §4

[8] = test system: Control cells (neural stem cells); assay: Cleaved caspase-3 staining (apoptosis); format: cell-based, human; settings: 72 h treatment
Procedure: (§7) Cells were treated with acivicin or DON for 72 h. The cells were then fixed and stained with an antibody for cleaved caspase-3, followed by a Cy-3 conjugated secondary and a DAPI counterstain. Multiple images were taken of each treatment and cleaved-caspase-3 positive cells counted using Adobe Photoshop. […] Control cells were unaffected by treatment. Representative images are seen in (B and D). Images colorized with Adobe Photoshop.

[9] = test system: neural stem cell models of medulloblastoma; assay: Cleaved caspase-3 staining (apoptosis); format: cell-based, human; settings: 72 h treatment, p<0.05
Procedure: as §7

[10] = test system: D283Med; assay: Sub-G1 (apoptotic) population by flow cytometry; format: cell-based, human
Source text: as §2

[11] = test system: D425Med; assay: Sub-G1 (apoptotic) population by flow cytometry; format: cell-based, human
Source text: as §2

[12] = test system: D425Med; assay: Cleaved caspase-3 immunofluorescence (apoptosis); format: cell-based, human; settings: n=3, p<0.05
Source text: as §2

[13] = test system: non-MYC transformed neurospheres; assay: Cell cycle analysis (sub 2N population, flow cytometry); format: cell-based, human; settings: 3 days of treatment, propidium iodide flow cytometry
Procedure: (§8) FIG. 7: Cell cycle analysis was performed using a Guava flow cytometer following 3 days of treatment in acivicin. Neurospheres transfected with MYC show an increase in the sub 2N population following 3 days of treatment with acivicin, indicating an increase in apoptosis after treatment.
(§9) We also asked this question using human neural stem cell models of aggressive brain tumors. We compared the sensitivity of human neural stem cells transduced with a package of oncogenes that contain MYC versus those that were transformed without using MYC.

[14] = test system: Neurospheres transfected with MYC; assay: as above; format: cell-based, human; settings: 3 days of treatment, propidium iodide flow cytometry
Procedure: as §8, §9

[15] = test system: MYC-driven human neural stem cell models of medulloblastoma (cerebellar neurospheres); assay: BrdU proliferation assay; format: cell-based
Procedure: (§10) FIG. 6: Suppression of proliferation of MYC-driven human neural stem cell models of medulloblastoma by acivicin. Two human neurosphere lines were treated with 10 uM acivicin for four days. On the fourth day, the spheres were pulsed with BrdU for 6 h. Following the pulse, the spheres were made single cells and fixed onto glass slides. Staining was performed using an anti-BrdU antibody followed by a secondary antibody conjugated to Cy3 and a DAPI counterstain. Images were taken at 400× (FIG. 6A, top panel). DAPI positive and BrdU positive (red) cells in the image were counted using Adobe Photoshop (FIG. 6A, bottom panel). An average of % positive BrdU cells was taken from three images. Error bars indicate SEM. *p=0.012.
(§11) FIG. 14: Acivicin decreases proliferation in neural stem cell models of MYC-driven medulloblastoma. Human neural stem cells derived from the developing cerebellum were transduced with lentiviral vectors coding for oncogenic elements associated with high-risk, MYC-driven medulloblastoma. SV40 was used as a control to immortalize the cells. The transduced neural stem cells were treated with acivicin for 72 h, and pulsed with bromodeoxyuridine for the final 6 hours of treatment. Cells were fixed and stained with an anti-BrdU antibody followed by a Cy-3 conjugated secondary and a DAPI counterstain. Multiple images were taken of each treatment and BrdU positive cells were counted using Adobe Photoshop. […] Representative images are in B.
(§12) For measurement of proliferation, cells were treated with the indicated drug for 18 hours and were then pulsed with bromo-deoxyuridine for an additional 6 hours. Cells were triturated to single cells and then cytospun onto microscope slides. After washing cells once with PBS, they were fixed with 4% paraformaldehyde for 15 minutes, permeabilized with 0.1% Triton/PBS, denatured with 0.1N HCl for 15 minutes, then blocked with 5% normal goat serum/PBST or 5% BSA/PBST, and incubated with anti-BrdU (Sigma) antibody at 37 degrees for one hour. After washing three times with PBST, cells were incubated for 45 minutes in the dark with the appropriate Cy-2 or Cy-3 conjugated secondary antibody (Jackson Immunoresearch). Cells were counterstained with DAPI and mounted with anti-fade (Vectastain). Multiple high power fields were photographed at random, and the percent BrdU positivity was calculated by counting first BrdU positive cells and then DAPI positive cells and dividing the former by the latter.

[16] = test system: human neural stem cells transformed without MYC (SV40 control); assay: BrdU proliferation assay; format: cell-based
Procedure: as §10, §11, §12

[17] = test system: cortex derived neurospheres transduced with oncogenes not including MYC; assay: BrdU proliferation assay, PNET models; format: cell-based, human; settings: 10 uM acivicin, no MYC
Procedure: as §5, §6

[18] = test system: D283Med xenografts; assay: D283Med orthotopic and flank xenografts in nude mice; format: in vivo; settings: IP 75 mg/kg acivicin 4 times a week, four weeks
Procedure: FIG. 13: Mice treated with Acivicin develop fewer and smaller flank tumors than untreated mice. Ten immunodeficient (nude) mice received orthotopic and flank xenografts of D283Med. Mice in the treatment group (n=5) were treated 4 times a week with an IP dose of 75 mg/kg of acivicin each time. Mice in the control group (n=5) received an IP injection of sterile PBS. After four weeks, all mice were sacrificed and brains and any flank tumors removed. 100% of the control group developed flank tumors, while only 40% of the treatment group developed flank tumors. The PBS treated mice also developed larger flank tumors (A, bars indicate mean tumor size, error bars SD).

[19] = test system: MYC transduced cortex derived human neural stem cell PNET models; assay: BrdU proliferation assay, PNET models; format: cell-based; settings: FIG. 10A
Procedure: as §5, §6

[20] = test system: UW228 cells engineered to express MYC (UW228-UWM13); assay: MTS cell growth assay; format: cell-based, human; settings: 3 days of drug treatment
Procedure: Values show mean (n=3) and error bars indicated standard deviation. FIG. 5B: The percent decrease in optical density between no drug and 50 uM acivicin. Error bars indicate SEM. *P=0.00029.
as §3
We next investigated if increasing MYC and GLS expression in a low MYC cell line could confer sensitivity to glutamine anti-metabolites.

[21] = 10 uM acivicin, four days, BrdU pulse 6 h

[N-]=[N+]=CC(=O)CC[C@H](N)C(=O)O [DON, 6-Diazo-5-oxo-L-norleucine]
growth as measured by MTS assay [1]: suppressed; also recorded: inhibited | growth as measured by MTS assay [2]: suppressed; also recorded: inhibited | reduction in proliferation [3]: did not respond strongly; also recorded: slight reduction | gastrointestinal (GI) toxicity [4]: results in gastrointestinal (GI) toxicity | sensitivity of MYC driven PNET models [5]: sensitive | reduction in growth [6]: modest reduction | growth as measured by MTS assay (sensitivity) [7]: relatively resistant | apoptosis (cleaved-caspase-3 positive cells) [8]: unaffected | apoptosis (cleaved-caspase-3 positive cells) [9]: significant increase in apoptosis | sub-G1 (apoptotic) population [10]: increase | sub-G1 (apoptotic) population [11]: increase | apoptosis (cleaved caspase-3 immunofluorescence) [12]: increase apoptosis

N[C@H](C(=O)O)[C@@H]1CC(Cl)=NO1 [acivicin, (2S)-Amino[(5S)-3-chloro-4,5-dihydro-1,2-oxazol-5-yl]ethanoic acid]
sub 2N population (apoptosis) [13]: did not show an increase; also recorded: do not show any increase | sub 2N population (apoptosis) [14]: increased apoptosis; also recorded: increase | growth as measured by MTS assay [1]: suppressed | growth as measured by MTS assay ([1]; listed as Acivicin): inhibited | inhibition at 10 µM ([1]; Homo sapiens, 72 h, D283, 10 uM acivicin, 3 days): ≥ 50% | growth as measured by MTS assay [2]: suppressed | growth as measured by MTS assay ([2]; listed as Acivicin): inhibited | inhibition at 10 µM ([2]; Homo sapiens, D425 Med, 72 h, D425, 10 uM acivicin, 3 days): ≥ 50% | reduction of proliferation (% BrdU positive cells) [15, 21]: ~30% | growth after treatment (FIG. 6) ([15]; MYC-transformed human neural stem cells): decreased growth | proliferation (BrdU positive cells) ([15]; acivicin 72 h, BrdU for the final 6 hours): significant decrease | change in proliferation (% BrdU positive cells) [16, 21]: insensitive; also recorded: no change | proliferation (BrdU positive cells) ([16]; SV40 control, acivicin 72 h, BrdU for the final 6 hours): no change | reduction in proliferation [17]: did not respond strongly; also recorded: modest reduction | flank tumor size / tumor growth ([18]; vs PBS, 75 mg/kg): markedly smaller tumors; also recorded: inhibits tumor growth | mice that developed flank tumors ([18]; control group 100%): 40% | sensitivity of MYC driven PNET models [19]: sensitive | reduction in growth [6]: modest reduction | growth as measured by MTS assay (sensitivity) [7]: relatively resistant; also recorded: virtually no suppression of growth; also recorded: not sensitive | apoptosis (cleaved-caspase-3 positive cells) [8]: unaffected | apoptosis (cleaved-caspase-3 positive cells) [9]: significant increase in apoptosis | growth compared to parental UW228 cells (MTS) [20]: decreased growth | sub-G1 (apoptotic) population [10]: increase | sub-G1 (apoptotic) population [11]: increase | apoptosis (cleaved caspase-3 immunofluorescence) [12]: increase apoptosis

Source: patent publication US20160008380A1, “TARGETING GLUTAMINE METABOLISM IN BRAIN TUMORS” (THE JOHNS HOPKINS UNIVERSITY, priority 2013, published 2016)
